{"source": "paper PMC7875911", "about": "(Frontiers in Pharmacology, 2021)", "molecules": {"B1": {"name": "Kurtoxin: scorpion peptide, gating modifier toxin (peptide, UniProt P58910 1-63, looked up)", "Kurtoxin": "KIDGYPVDYWNCKRICWYNNKYCNDLCKGLKADSGYCWGWTLSCYCQGLPDNARIKRSGRCRA", "modifications": "ends and bridges not checked"}}, "key": {"animal pain models": {"system": "animal pain models", "conditions": "cited from earlier work", "source_text": "[…]. Nav channels are structurally related to voltage-gated calcium (Cav) channels, Cav1 and Cav2. […] […]."}, "[1]": {"system": "voltage-gated ion channels (VGICs)", "conditions": "cited from earlier work; for inhibition of Nav and Cav channels (in words): Chuang et al., Yamamoto and Sakashita, Middleton et al., Sidach and Mintz, Xiao et al., 2005"}, "[2]": {"system": "HVA I Ca in small-diameter IB4 ^− DRG neurons", "test": "cells", "experimental": "Spinal level L3–L5 DRG were removed and placed in ice-cold HEPES-buffered saline (HBS) composed of (in mM): 154 NaCl, 2.5 KCl, 1.8 CaCl2, 1.5 MgCl2, 10 HEPES, and 10 glucose (pH 7.4, 330 ± 5 mOsm). Iridectomy scissors were utilized to cut up ganglia before incubation at 37°C for 15 min in oxygenated HBS containing 5 mg ml^−1 collagenase type 2 (Worthington Biochemical Corp, Lakewood, NJ, United States) followed by 25 min in oxygenated HBS containing 1 mg ml^−1 papain (Worthington Biochemical Corp). […] After enzyme treatment, ganglia were placed in 3 ml of HBS following two room temperature HBS washes. Ganglia were then triturated through fire-polished Pasteur pipettes with decreasing bores to extract cells. Finally, the cells mixed in HBS were plated onto surface modified culture dishes (Corning Primaria™ easy grip). […] DRG cells were pre-treated with 1 μg ml^−1 Alexa Fluor 488-conjugated Bandeiraea simplicifolia IB4 (Invitrogen) for 5 min at room temperature and washed with HBS for 5 min before fluorescence was examined on the inverted microscope (Olympus, IX50) used for patch clamp recordings.\nCell size was determined from an eyepiece graticule. Whole-cell electrophysiology was conducted at room temperature (22–24°C) in culture dishes perfused with room temperature HBS. The intracellular pipette solution contained (mM): 120 CsCl, 10 HEPES, 10 EGTA, 2 CaCl2, 5 MgATP, 5 Na2GTP, 5 NaCl; pH 7.3 (CsOH); 285 ± 5 mos mol l^−1.\nAn EPC-9 patch-clamp amplifier and corresponding PULSE software from HEKA Electronik (Lambrecht/Pfalz, Germany) were used to make recordings. Currents were sampled at 50 kHz and recorded on a hard disk. Borosilicate glass from AM Systems, Everett, WA, United States were used for patch pipettes. The input resistance of the pipettes ranged from 2 to 4 MΩ. […] A built-in procedure of the HEKA amplifier compensated for the capacitive transient currents. A −P/6 protocol was utilized to subtract leak current online. I Ca was generated with the recording protocol which included a depolarization from a holding potential of −80 mV to 0 mV for 10 ms every 30 s. I Na was generated through a recording protocol which included a step depolarization from a holding potential of −80 mV to 0 mV for 10 ms at a frequency of 0.1 Hz. Cells were perfused with the test compound via a pressure driven perfusion system (AutoMate Scientific, United States).\nAll data analysis and graphs were generated in OriginPro (Origin Lab Corporation, United States). […] Activation and SSI curves were fit by the modified Boltzmann equation: I or G=1/(1+exp(Vm−V0.5/ka)) Where I is the current or G is the conductance, Vm is the pre-pulse potential, V 0.5 is the half-maximal activation potential and ka is the slope factor.\nStatistical significance (p < 0.05) was determined using unpaired Student’s t-test or 1-way ANOVA followed by a Tukey multiple comparison. All data is presented as mean ± SEM (n), where n is individual cells."}, "Nav1.7": {"system": "Nav1.7", "conditions": "cited from earlier work", "source_text": "Loss-of-function mutation of the SCN9A gene that codes for Nav1.7 leads to congenital insensitivity to pain ([Cox et al., 2006]), whereas SCN9A gain-of-function mutations causes paroxysmal extreme pain disorder and primary erythromelalgia ([Dib-Hajj et al., 2008]). […] Homology of VGIC voltage sensing domains, and particularly those of Nav channels, is at the crux of the development of genuinely selective Nav1.7 modulators ([Kingwell, 2019]). Given the VSD functional importance in neuronal VGICs and their structural homology, it is not surprising that VDPs target related channel families. […] Mammalian Nav and Cav α-subunits are structurally homologous but differ in their gating mechanisms ([Kubota et al., 2017])."}, "Nav1.2 and Nav1.5": {"system": "Nav1.2 and Nav1.5", "conditions": "ref Chuang et al., 1998, Olamendi-Portugal et al., 2002, Sidach and Mintz; cited from earlier work", "source_text": "(§1) Mammalian Nav and Cav α-subunits are structurally homologous but differ in their gating mechanisms ([Kubota et al., 2017])."}, "[3]": {"system": "T-type and L-type Cav channels", "conditions": "ref Chuang et al., 1998, Olamendi-Portugal et al., 2002, Sidach and Mintz; cited from earlier work", "source_text": "as §1"}, "P-type calcium channels": {"system": "P-type calcium channels", "conditions": "ref Chuang et al., 1998, Olamendi-Portugal et al., 2002, Sidach and Mintz; cited from earlier work", "source_text": "as §1"}, "N-type Cav channel": {"system": "N-type Cav channel", "conditions": "ref Chuang et al., 1998, Olamendi-Portugal et al., 2002, Sidach and Mintz; cited from earlier work", "source_text": "as §1"}, "[4]": {"conditions": "ref Kuenzi and Dale, 1996, Caterina et al., 1997, McArthur et al., 2019"}, "[5]": {"conditions": "ref Swartz and MacKinnon, 1995, 1998, Li-Smerin and Swartz, 2002, Bosmans et al., 2008, Bladen et al., 2014"}}, "note": "Like-named read-outs stand apart in the source and are kept apart here. No end group written: not given here."}
{"molecule": "Cn1nccc1-c1ccccc1Oc1ccc(S(=O)(=O)Nc2nccs2)cc1C#N", "note": "[PF-04856264]", "values": [{"measurement": "effect in rodent models of acute nociception or inflammatory pain (in words)", "setting": "animal pain models; small molecule, ref Deuis et al., 2017", "value": "ineffective"}]}
{"molecule": "COc1cc(CNC(=O)CCCC/C=C/C(C)C)ccc1O", "note": "[capsaicin]", "values": [{"measurement": "channel families acted on", "setting": "[1]; [4]", "value": "TRPV1/Kv/Cav"}]}
{"molecule": "Oc1cc2c(cc1O)CN(C(=S)NCCc1ccc(Cl)cc1)CCC2", "note": "[capsazepine]", "values": [{"measurement": "channel families acted on", "setting": "[1]; [4]", "value": "TRPV1/Kv/Cav"}]}
{"molecule": "CN1CC[C@]23c4c5ccc(O)c4O[C@H]2[C@@H](O)C=C[C@H]3[C@H]1C5", "note": "[morphine]", "values": [{"measurement": "antinociceptive effect in the presence of Cav1 and Cav2.2 channel inhibitors (in words)", "setting": "animal pain models; in vivo", "value": "enhanced"}]}
{"molecule": "C=CCN1CC[C@]23c4c5ccc(O)c4O[C@H]2C(=O)CC[C@@]3(O)[C@H]1C5", "note": "[naloxone, reference compound]", "values": [{"measurement": "inhibition at 1 µM", "setting": "[2]; Rattus norvegicus, DRG neuron, read-out: inhibition of I Ca", "value": "1.68 ± 0.61", "unit": "%"}, {"measurement": "effect on Nav1.7 currents (in words)", "setting": "Nav1.7", "value": "did not alter Nav1.7 currents"}]}
{"molecule": "COc1ccc2c3c1O[C@H]1C(=O)CC[C@@]4(O)[C@@H](C2)N(C)CC[C@]314", "note": "[oxycodone, reference compound]", "values": [{"measurement": "effect on Nav1.7 currents (in words)", "setting": "Nav1.7; opioid receptor modulators, ref Mueller et al., 2019", "value": "did not alter Nav1.7 currents"}]}
{"molecule": "NC1=N[C@H](O)[C@H]2[C@H]3O[C@]4(O)O[C@@H]([C@@H](O)[C@@]2(N1)[C@@H]4O)[C@]3(O)CO", "note": "[tetrodotoxin]", "values": [{"measurement": "channel families acted on", "setting": "[1]", "value": "Nav/Cav"}]}
{"molecule": "Hanatoxin", "values": [{"measurement": "inhibition of Nav and Cav channels (in words)", "setting": "[1]; [5]", "value": "inhibit both Nav and Cav channels"}, {"measurement": "channel families acted on", "setting": "[1]; ref Swartz and MacKinnon, 1995, Li-Smerin and Swartz, 1998, Bosmans et al., 2008", "value": "Kv/Nav/Cav"}]}
{"molecule": "ProTxI: voltage-sensing domain (VSD) gating modifier toxin (ECRYWLGGCSAGQTCCKHLVCSRRHGWCVWDGTFS; ends and bridges not checked; cysteine pairing not given here; UniProt P83480 1-35, looked up)", "values": [{"measurement": "channel families acted on", "setting": "[1]; ref Middleton et al., 2002, Bosmans et al., 2008, Bladen et al., 2014, Gui et al.", "value": "Nav/Kv/Cav/TRPA1"}, {"measurement": "inhibition of Nav and Cav channels (in words)", "setting": "[1]; [5]", "value": "inhibit both Nav and Cav channels"}]}
{"molecule": "ProTxII", "values": [{"measurement": "channel families acted on", "setting": "[1]; ref Middleton et al., 2002, Bladen et al., 2014", "value": "Nav/Cav"}, {"measurement": "inhibition of Nav and Cav channels (in words)", "setting": "[1]; [5]", "value": "inhibit both Nav and Cav channels"}, {"measurement": "effect in rodent models of acute nociception or inflammatory pain (in words)", "setting": "animal pain models; ref Schmalhofer et al., 2008", "value": "ineffective"}]}
{"molecule": "[D-Ala^2, N-MePhe^4, Gly-ol]-Enkephalin [DAMGO, reference compound]", "values": [{"measurement": "inhibition of HVA I Ca", "setting": "[2]; 100 nM DAMGO applied alone, small IB4− rat DRG neurons, mean ± SEM, n = 6", "value": "6.49 ± 1.07", "unit": "%"}, {"measurement": "antinociceptive effect in the presence of Cav1 and Cav2.2 channel inhibitors (in words)", "setting": "animal pain models; ref Contreras et al., 1988, Barro et al., 1995", "value": "enhanced"}]}
{"molecule": "B1", "values": [{"measurement": "channel families acted on", "setting": "[1]; ref Chuang et al., 1998", "value": "Nav/Cav"}, {"measurement": "inhibition of Nav and Cav channels (in words)", "setting": "[1]; [5]", "value": "inhibit both Nav and Cav channels"}, {"measurement": "effect on inactivation of Nav1.2 and Nav1.5 (in words)", "setting": "Nav1.2 and Nav1.5", "value": "slows inactivation"}, {"measurement": "effect on deactivation (in words)", "setting": "[3]", "value": "accelerates deactivation"}, {"measurement": "effect on deactivation (in words)", "setting": "P-type calcium channels", "value": "slows deactivation"}, {"measurement": "effect on N-type Cav channel kinetics (in words)", "setting": "N-type Cav channel", "value": "little to no alteration"}]}
